Experimental data published in US10173991B2, “Sulfone amide linked benzothiazole inhibitors of endothelial lipase” (BRISTOL-MYERS SQUIBB COMPANY, priority 2014, dated 2019).

Biological target: Endothelial lipase (EL) (Homo sapiens (Human), UniProt Q9Y5X9)
Assay: Endothelial lipase (EL) enzymatic assay with fluorescent substrate A10070 in DMPG vesicles
Type: biochemical
Summary of the method: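 Compounds were preincubated with enzyme for 30 min at 37° C before FRET-substrate vesicles (A10070 in DMPG, 0.11 mole fraction) were added. Reaction rates were obtained from the 300–900 sec slope of fluorescence at 490/530 nm.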

Sequence of Endothelial lipase (EL) (Q9Y5X9 21-500): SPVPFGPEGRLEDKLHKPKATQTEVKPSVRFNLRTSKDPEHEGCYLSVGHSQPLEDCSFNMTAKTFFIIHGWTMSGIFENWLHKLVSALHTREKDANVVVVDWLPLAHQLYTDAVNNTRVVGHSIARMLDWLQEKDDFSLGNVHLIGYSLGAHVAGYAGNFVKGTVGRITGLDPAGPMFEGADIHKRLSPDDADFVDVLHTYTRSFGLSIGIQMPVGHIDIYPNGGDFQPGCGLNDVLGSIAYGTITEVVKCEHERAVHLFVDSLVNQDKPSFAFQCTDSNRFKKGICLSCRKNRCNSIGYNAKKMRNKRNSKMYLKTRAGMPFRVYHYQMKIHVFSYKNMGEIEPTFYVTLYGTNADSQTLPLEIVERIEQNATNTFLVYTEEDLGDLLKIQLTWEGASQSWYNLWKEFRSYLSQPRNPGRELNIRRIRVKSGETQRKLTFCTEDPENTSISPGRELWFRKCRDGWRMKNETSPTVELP

SMILES	IC50 [nM]
CC(=O)Nc1cccc(-c2ccc3nc(C(C(=O)NCC(=O)NC4CC4)S(=O)(=O)Cc4cccc(C#N)c4)sc3c2)c1 (centres unmarked) [Example 279]	89
COCCOC(=O)Nc1ccc(-c2cc3sc(C(C(=O)NCC(=O)NC4CC4)S(C)(=O)=O)nc3cc2F)cn1 (centres unmarked) [Example 36, 2-methoxyethyl N-{5-[2-({[(cyclopropyl-carbamoyl)methyl]carbamoyl} (methanesulfonyl)methyl)-5-fluoro-1,3-benzothiazol-6-yl]pyridin-2-yl}carbamate]	11
Cn1ccc(-c2ccc3nc(C(C(=O)NCC(=O)NC4CC4)S(=O)(=O)N4CCOCC4)sc3c2)cc1=O (centres unmarked) [Example 485, N-[(cyclopropyl-carbamoyl)methyl]-2-[6-(1-methyl-2-oxo-1,2-dihydropyridin-4-yl)-1,3-benzothiazol-2-yl]-2-(morpholine-4-sulfonyl)acetamide]	57
COCCS(=O)(=O)C(C(=O)NCC(=O)NC1CC1)c1nc2cc(OC)c(-c3cccnc3F)cc2s1 (centres unmarked) [Example 219, N-[(cyclopropyl-carbamoyl)methyl]-2-[6-(2-fluoropyridin-3-yl)-5-methoxy-1,3-benzothiazol-2-yl]-2-(2-methoxyethane-sulfonyl) acetamide]	39
COCCS(=O)(=O)C(C(=O)NCC(=O)NC1CC1)c1nc2ccc(-c3cnc(C(F)(F)F)nc3)cc2s1 (centres unmarked) [Example 301, N-[(cyclopropyl-carbamoyl)methyl]-2-(2-methoxyethane-sulfonyl)-2-{6-[2-(trifluoromethyl)pyrimidin-5-yl]-1,3-benzothiazol-2-yl}acetamide]	155
COCCS(=O)(=O)C(C(=O)NCC(=O)NC1CC1)c1nc2cc(-c3c(C)ccnc3F)ccc2s1 (centres unmarked) [Example 92, N-[(cyclopropyl-carbamoyl)methyl]-2-[5-(2-fluoro-4-methylpyridin-3-yl)-1,3-benzothiazol-2-yl]-2-(2-methoxyethane-sulfonyl) acetamide]	77
CN(C)c1ccc(-c2ccc3nc(C(C(=O)NCC(=O)NC4CC4)S(=O)(=O)Cc4ccc(F)cc4)sc3c2)cn1 (centres unmarked) [Example 224, N-[(cyclopropyl-carbamoyl)methyl]-2-{6-[6-(dimethylamino)pyridin-3-yl]-1,3-benzothiazol-2-yl}-2-[(4-fluorophenyl)methanesulfonyl] acetamide]	86
CN(C)S(=O)(=O)C(C(=O)NCC(=O)NC1CC1)c1nc2c(F)cc(-c3cccc(-n4cccn4)c3)cc2s1 (centres unmarked) [Example 505, N-[(cyclopropyl-carbamoyl)methyl]-2-(dimethyl-sulfamoyl)-2-{4-fluoro-6-[3-(1H-pyrazol-1-yl)phenyl]-1,3-benzothiazol-2-yl}acetamide]	130
CS(=O)(=O)C(C(=O)NCC(=O)NC1CC1)c1nc2cc(F)c(-c3ccc4c(c3)NC(=O)C4)cc2s1 (centres unmarked) [Example 372, N-[(cyclopropyl-carbamoyl)methyl]-2-[5-fluoro-6-(2-oxo-2,3-dihydro-1H-indol-6-yl)-1,3-benzothiazol-2-yl]-2-methanesulfonyl-acetamide]	6
COCCNC(=O)c1ccc(-c2ccc3nc(C(C(=O)NCC(=O)NC4CC4)S(=O)(=O)CCOC)sc3c2)cc1 (centres unmarked) [Example 306, 4-[2-({[(cyclopropyl-carbamoyl)methyl]carbamoyl}(2-methoxyethane-sulfonyl)methyl)-1,3-benzothiazol-6-yl]-N-(2-methoxyethyl) benzamide]	13
COCCS(=O)(=O)C(C(=O)NCC(=O)NC1CC1)c1nc2cc(-c3ccnc(OC)c3)ccc2s1 (centres unmarked) [Example 74, N-[(cyclopropyl-carbamoyl)methyl]-2-(2-methoxyethane-sulfonyl)-2-[5-(2-methoxypyridin-4-yl)-1,3-benzothiazol-2-yl]acetamide]	31
COCCS(=O)(=O)C(C(=O)NCC(=O)NC1CC1)c1nc2cc(F)c(-c3ccc(NC(=O)CCc4ccccc4)cc3)cc2s1 (centres unmarked) [Example 577, N-{4-[2-({[(cyclopropyl-carbamoyl)methyl]carbamoyl}(2-methoxyethane-sulfonyl)methyl)-5-fluoro-1,3-benzothiazol-6-yl]phenyl}-3-phenyl-propanamide]	1
COc1cc(-c2cc3nc(C(C(=O)NCC(=O)NC4CC4)S(C)(=O)=O)sc3cc2F)ccn1 (centres unmarked) [Example 364, N-[(cyclopropyl-carbamoyl)methyl]-2-[6-fluoro-5-(2-methoxypyridin-4-yl)-1,3-benzothiazol-2-yl]-2-methanesulfonyl-acetamide]	12
Cc1ncc(-c2cc3sc(C(C(=O)NCC(=O)NC4CC4)S(=O)(=O)C(C)C)nc3cc2F)cn1 (centres unmarked) [Example 231, N-[(cyclopropyl-carbamoyl)methyl]-2-[5-fluoro-6-(2-methylpyrimidin-5-yl)-1,3-benzothiazol-2-yl]-2-(propane-2-sulfonyl) acetamide]	11
COc1ccc(-c2ccc3nc(C(C(=O)NCC(=O)NC4CC4)S(=O)(=O)c4ccc(F)cc4)sc3c2)cn1 (centres unmarked) [Example 456, N-[(cyclopropyl-carbamoyl)methyl]-2-(4-fluorobenzene-sulfonyl)-2-[6-(6-methoxypyridin-3-yl)-1,3-benzothiazol-2-yl]acetamide]	109
COCCS(=O)(=O)C(C(=O)NCC(=O)NC1CC1)c1nc2ccc(-c3ccc(C(=O)N4CC(F)(F)C4)cc3)cc2s1 (centres unmarked) [Example 406, N-[(cyclopropyl-carbamoyl)methyl]-2-{6-[4-(3,3-difluoroazetidine-1-carbonyl)phenyl]-1,3-benzothiazol-2-yl}-2-(2-methoxyethane-sulfonyl)acetamide]	13

Other lines, results leading:

IC50 [nM]	SMILES
5	NC(=O)Nc1ccc(-c2cc3sc(C(C(=O)NCC(=O)NC4CC4)S(=O)(=O)CCC(F)(F)F)nc3cc2F)cc1 (centres unmarked) [Example 7, 2-{6-[4-(carbamoyl-amino)phenyl]-5-fluoro-1,3-benzothiazol-2-yl}-N-[(cyclopropyl-carbamoyl)methyl]-2-(3,3,3-trifluoropropane-sulfonyl) acetamide]
39	CC(C)S(=O)(=O)C(C(=O)NCC(=O)NC1CC1)c1nc2cc(-c3ccc(F)nc3)ccc2s1 (centres unmarked) [Example 16, N-[(cyclopropyl-carbamoyl)methyl]-2-[5-(6-fluoropyridin-3-yl)-1,3-benzothiazol-2-yl]-2-(propane-2-sulfonyl) acetamide]
16	CN(C)S(=O)(=O)C(C(=O)NCC(=O)NC1CC1)c1nc2cc(F)c(-c3ccc(-c4ccccc4)nc3)cc2s1 (centres unmarked) [Example 507, N-[(cyclopropyl-carbamoyl)methyl]-2-(dimethyl-sulfamoyl)-2-[5-fluoro-6-(6-phenylpyridin-3-yl)-1,3-benzothiazol-2-yl]acetamide]
34	Cc1ncc(-c2cc3sc(C(C(=O)NCC(=O)NC4CC4)S(C)(=O)=O)nc3cc2F)cn1 (centres unmarked) [Example 194, N-[(cyclopropyl-carbamoyl)methyl]-2-[5-fluoro-6-(2-methylpyrimidin-5-yl)-1,3-benzothiazol-2-yl]-2-methanesulfonyl-acetamide]
9	COCCS(=O)(=O)C(C(=O)NCC(=O)NC1CC1)c1nc2cc(F)c(-c3ccc(NC(N)=O)cc3)cc2s1 (centres unmarked) [Example 4, 2-{6-[4-(carbamoyl-amino)phenyl]-5-fluoro-1,3-benzothiazol-2-yl}-N-[(cyclopropyl-carbamoyl)methyl]-2-(2-methoxy-ethanesulfonyl) acetamide]
10	CC(C)S(=O)(=O)C(C(=O)NCC(=O)NC1CC1)c1nc2c(F)cc(-c3ccc(N4CCCC4=O)cc3)cc2s1 (centres unmarked) [Example 283, N-[(cyclopropyl-carbamoyl)methyl]-2-{4-fluoro-6-[4-(2-oxopyrrolidin-1-yl)phenyl]-1,3-benzothiazol-2-yl}-2-(propane-2-sulfonyl)acetamide]
7	O=C(CNC(=O)C(c1nc2cc(-c3ccc(F)nc3)ccc2s1)S(=O)(=O)CCC(F)(F)F)NC1CC1 (centres unmarked) [Example 12, N-[(cyclopropyl-carbamoyl)methyl]-2-[5-(6-fluoropyridin-3-yl)-1,3-benzothiazol-2-yl]-2-(3,3,3-trifluoropropane-sulfonyl) acetamide]
1	CC(C)S(=O)(=O)C(C(=O)NCC(=O)NC1CC1)c1nc2cc(F)c(-c3ccc(NC(=O)OCC4CC4)cc3)cc2s1 (centres unmarked) [Example 528]
7	CS(=O)(=O)C(C(=O)NCC(=O)NC1CC1)c1nc2cc(-c3ccc(F)nc3)c(F)cc2s1 (centres unmarked) [Example 359, N-[(cyclopropyl-carbamoyl)methyl]-2-[6-fluoro-5-(6-fluoropyridin-3-yl)-1,3-benzothiazol-2-yl]-2-methanesulfonyl-acetamide]
6	COC(=O)Nc1ccc(-c2cc3nc(C(C(=O)NCC(=O)NC4CC4)S(=O)(=O)C(C)C)sc3cc2F)cc1 (centres unmarked) [Example 269, methyl N-{4-[2-({[(cyclopropyl-carbamoyl)methyl]carbamoyl} (propane-2-sulfonyl)methyl)-6-fluoro-1,3-benzothiazol-5-yl]phenyl}carbamate]
3	COCCS(=O)(=O)C(C(=O)NCC(=O)NC1CC1)c1nc2cc(F)c(-c3ccc4c(=O)n(C)ccc4c3)cc2s1 (centres unmarked) [Example 153, N-[(cyclopropyl-carbamoyl)methyl]-2-[5-fluoro-6-(2-methyl-1-oxo-1,2-dihydro-isoquinolin-6-yl)-1,3-benzothiazol-2-yl]-2-(2-methoxyethane-sulfonyl) acetamide]
12	COCCS(=O)(=O)C(C(=O)NCC(=O)NC1CC1)c1nc2cc(F)c(-c3cccc(N(C)C(=O)OC)c3)cc2s1 (centres unmarked) [Example 548, methyl N-{3-[2-({[(cyclopropyl-carbamoyl)methyl]carbamoyl}(2-methoxyethane-sulfonyl)methyl)-5-fluoro-1,3-benzothiazol-6-yl]phenyl}-N-methylcarbamate]
27	COCCS(=O)(=O)C(C(=O)NCC(=O)NC1CC1)c1nc2ccc(-c3ccc(COC)cc3)cc2s1 (centres unmarked) [Example 308, N-[(cyclopropyl-carbamoyl)methyl]-2-(2-methoxyethane-sulfonyl)-2-{6-[4-(methoxymethyl)phenyl]-1,3-benzothiazol-2-yl}acetamide]
